In one data set the target is T1, Tyrosinase (Danio rerio) (UniProt A0A8M1PAD4).
T1 sequence (whole entry): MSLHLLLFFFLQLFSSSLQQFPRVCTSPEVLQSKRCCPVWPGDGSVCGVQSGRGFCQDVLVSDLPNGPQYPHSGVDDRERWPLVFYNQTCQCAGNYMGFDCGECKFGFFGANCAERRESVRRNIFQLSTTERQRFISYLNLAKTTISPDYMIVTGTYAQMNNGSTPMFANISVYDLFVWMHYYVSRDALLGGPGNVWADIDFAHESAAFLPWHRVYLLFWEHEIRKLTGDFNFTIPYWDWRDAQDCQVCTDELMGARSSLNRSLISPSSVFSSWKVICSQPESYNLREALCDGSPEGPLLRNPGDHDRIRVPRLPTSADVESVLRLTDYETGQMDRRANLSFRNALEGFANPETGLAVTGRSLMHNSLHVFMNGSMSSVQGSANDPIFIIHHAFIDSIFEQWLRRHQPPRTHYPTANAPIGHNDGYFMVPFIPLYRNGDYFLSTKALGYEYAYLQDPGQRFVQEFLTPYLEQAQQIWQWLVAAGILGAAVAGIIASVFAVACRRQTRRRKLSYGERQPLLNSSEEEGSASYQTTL
Put plainly: Inhibition of zebrafish embryo tyrosinase assessed as melanin production at 50 ug/ml after 48 hrs relative to control; values are per cent of control.

The next data set can be described thus: in vivo. The following applies: zebrafish.
Data set [1] has as its system Danio rerio. In words: Toxicity in wild type zebrafish embryos assessed as yolk edema at 2500 ug/ml treated for 96 hrs post fertilization starting from 6 hrs post fertilization by inverted microscopic analysis relative to control. Format: organism-based. The following applies: in vivo.
The species named for data set [2] is Danio rerio. In words: Toxicity in wild type zebrafish embryos assessed as unhatched embryo at 2500 ug/ml treated for 96 hrs post fertilization starting from 6 hrs post fertilization by inverted microscopic analysis relative to control. The following applies: in vivo. Format: organism-based.
Data set [3] is filed under the species Danio rerio. In words: Toxicity in wild type zebrafish embryos assessed as otoliths at 500 ug/ml treated for 96 hrs post fertilization starting from 6 hrs post fertilization by inverted microscopic analysis relative to control. Format: organism-based. The following applies: in vivo.
For data set [4], the species on record is Danio rerio. In words: Toxicity in wild type zebrafish embryos assessed as blood circulation at 1000 ug/ml treated for 96 hrs post fertilization starting from 6 hrs post fertilization by inverted microscopic analysis relative to control. Format: organism-based. The following applies: in vivo.
For data set [5], the species on record is Danio rerio. Put plainly: Toxicity in wild type zebrafish embryos assessed as normal embryo at 500 ug/ml treated for 96 hrs post fertilization starting from 6 hrs post fertilization by inverted microscopic analysis relative to control. The class given is organism-based. The following applies: in vivo.
For data set [6], the system named is Danio rerio. Put plainly: Toxicity in wild type zebrafish embryos assessed as pericardial edema at 1000 ug/ml treated for 96 hrs post fertilization starting from 6 hrs post fertilization by inverted microscopic analysis relative to control. The class given is organism-based. The following applies: in vivo.
The species entered for data set [7] is Danio rerio. Put plainly: Toxicity in wild type zebrafish embryos assessed as growth retardation at 1000 ug/ml treated for 96 hrs post fertilization starting from 6 hrs post fertilization by inverted microscopic analysis relative to control. The class given is organism-based. The following applies: in vivo.
Data set [8] is filed under the species Danio rerio. Put plainly: Toxicity in wild type zebrafish embryos assessed as unhatched embryo at 100 ug/ml treated for 96 hrs post fertilization starting from 6 hrs post fertilization by inverted microscopic analysis relative to control. Format: organism-based. The following applies: in vivo.
The species entered for data set [9] is Danio rerio. Put plainly: Toxicity in wild type zebrafish embryos assessed as otoliths at 100 ug/ml treated for 96 hrs post fertilization starting from 6 hrs post fertilization by inverted microscopic analysis relative to control. Format: organism-based. The following applies: in vivo.
The species named for data set [10] is Danio rerio. Put plainly: Anti-melanogenic activity in wild type zebrafish 24 hrs post fertilization embryos assessed as decrease in body pigmentation at 100 ug/ml after 48 hrs. Format: functional, organism-based.
Data set [11] is filed under the species Danio rerio. In words: Toxicity in wild type zebrafish embryos assessed as normal embryo at 100 ug/ml treated for 96 hrs post fertilization starting from 6 hrs post fertilization by inverted microscopic analysis relative to control. The following applies: in vivo. The class given is organism-based.
The species entered for data set [12] is Danio rerio. Put plainly: Toxicity in wild type zebrafish embryos assessed as notochord at 2000 ug/ml treated for 96 hrs post fertilization starting from 6 hrs post fertilization by inverted microscopic analysis relative to control. The class given is organism-based. The following applies: in vivo.
The nature of data set [13]: Toxicity in wild type zebrafish embryos assessed as dead embryo at 2000 ug/ml treated for 96 hrs post fertilization starting from 6 hrs post fertilization by inverted microscopic analysis relative to control. Format: organism-based, Danio rerio. The following applies: in vivo, read-out: Activity.
The nature of data set [14]: Toxicity in wild type zebrafish embryos assessed as dead embryo at 500 ug/ml treated for 96 hrs post fertilization starting from 6 hrs post fertilization by inverted microscopic analysis relative to control. Format: organism-based, Danio rerio. The following applies: in vivo, read-out: Activity.
The species entered for data set [15] is Danio rerio. Put plainly: Toxicity in wild type zebrafish embryos assessed as normal embryo at 1000 ug/ml treated for 96 hrs post fertilization starting from 6 hrs post fertilization by inverted microscopic analysis relative to control. Format: organism-based. The following applies: in vivo.
The test system of data set [16] is Danio rerio. Put plainly: Toxicity in wild type zebrafish embryos assessed as pericardial edema at 100 ug/ml treated for 96 hrs post fertilization starting from 6 hrs post fertilization by inverted microscopic analysis relative to control. The class given is organism-based. The following applies: in vivo.
The species entered for data set [17] is Danio rerio. Put plainly: Toxicity in wild type zebrafish embryos assessed as heart beat at 2500 ug/ml treated for 96 hrs post fertilization starting from 6 hrs post fertilization by inverted microscopic analysis relative to control. The class given is organism-based. The following applies: in vivo.
Data set [18] is described as follows: Toxicity in wild type zebrafish embryos assessed as dead embryo at 2500 ug/ml treated for 96 hrs post fertilization starting from 6 hrs post fertilization by inverted microscopic analysis relative to control. Format: organism-based, Danio rerio. The following applies: in vivo, read-out: Activity.
Data set [19] is described as follows: Toxicity in wild type zebrafish embryos assessed as dead embryo at 1000 ug/ml treated for 96 hrs post fertilization starting from 6 hrs post fertilization by inverted microscopic analysis relative to control. The class given is organism-based, Danio rerio. The following applies: in vivo, read-out: Activity.
For data set [20], the species on record is Danio rerio. In words: Toxicity in wild type zebrafish embryos assessed as skeletal deformities at 500 ug/ml treated for 96 hrs post fertilization starting from 6 hrs post fertilization by inverted microscopic analysis relative to control. The class given is organism-based. The following applies: in vivo.
For data set [21], the species on record is Danio rerio. In words: Toxicity in wild type zebrafish embryos assessed as otoliths at 2500 ug/ml treated for 96 hrs post fertilization starting from 6 hrs post fertilization by inverted microscopic analysis relative to control. The following applies: in vivo. Format: organism-based.
The next data set deals with Neutrophil. In words: Anti-melanogenic activity in mpx:GFP transgenic zebrafish 24 hrs post fertilization embryo neutrophils assessed as decrease in pigmentation at 2 to 2.5 mg/ml. The following applies: Danio rerio. The class given is functional, cell-based.
The species entered for data set [22] is Danio rerio. Put plainly: Anti-melanogenic activity in wild type zebrafish 24 hrs post fertilization embryos assessed as decrease in body pigmentation at >= 500 ug/ml after 48 hrs. The class given is functional, organism-based.
The species entered for data set [23] is Danio rerio. In words: Toxicity in wild type zebrafish embryos assessed as teratogenic embryo at 100 ug/ml treated for 96 hrs post fertilization starting from 6 hrs post fertilization by inverted microscopic analysis relative to control. Format: organism-based. The following applies: in vivo.
The species entered for data set [24] is Danio rerio. Put plainly: Toxicity in wild type zebrafish embryos assessed as eyes at 100 ug/ml treated for 96 hrs post fertilization starting from 6 hrs post fertilization by inverted microscopic analysis relative to control. The following applies: in vivo. The class given is organism-based.
For data set [25], the species on record is Danio rerio. Put plainly: Toxicity in wild type zebrafish embryos assessed as growth retardation at 100 ug/ml treated for 96 hrs post fertilization starting from 6 hrs post fertilization by inverted microscopic analysis relative to control. Format: organism-based. The following applies: in vivo.
For data set [26], the species on record is Danio rerio. Put plainly: Toxicity in wild type zebrafish embryos assessed as eyes at 2000 ug/ml treated for 96 hrs post fertilization starting from 6 hrs post fertilization by inverted microscopic analysis relative to control. Format: organism-based. The following applies: in vivo.
The species entered for data set [27] is Danio rerio. Put plainly: Toxicity in wild type zebrafish embryos assessed as head malformation at 1000 ug/ml treated for 96 hrs post fertilization starting from 6 hrs post fertilization by inverted microscopic analysis relative to control. Format: organism-based. The following applies: in vivo.
Data set [28] deals with Danio rerio. In words: Toxicity in wild type zebrafish embryos assessed as yolk edema at 100 ug/ml treated for 96 hrs post fertilization starting from 6 hrs post fertilization by inverted microscopic analysis relative to control. The following applies: in vivo. Format: organism-based.

Activity calls are given as the source filed them. No cut-off for these calls is given here.

Description for in vivo: Toxicity in wild type zebrafish embryos assessed as dead embryo at 6.25 ug/ml treated for 96 hrs post fertilization starting from 6 hrs post fertilization by inverted microscopic analysis relative to control

As for `O=c1cc(-c2ccccc2)c2ccc(O)cc2o1`, the melanin content % of control at Tyrosinase (Danio rerio) was found to be 24%.
Regarding `Oc1ccc(O)cc1` [HYDROQUINONE], the mortality at 6.25 ug/ml in the data set “in vivo” stood at 0%.
Consider `O=c1cc(CO)occ1O` [KOJIC ACID], for which the Activity is given as 5% in the data set with Danio rerio [1]; 0% in the data set filed under Danio rerio [2]; 0% in the data set filed under Danio rerio [3]; 0% in the data set listed under Danio rerio [4]; 13.33% in the data set filed under Danio rerio [5]; 98.33% in the data set on Danio rerio [6]. The Activity stood at 0% in the data set filed under Danio rerio [7]; 0% in the data set listed under Danio rerio [8]; 0% in the data set listed under Danio rerio [9]; 65% in the data set filed under Danio rerio [11]; 0% in the data set filed under Danio rerio [12]; 1.67% in the data set filed under Danio rerio [15]. For the same compound, the Activity with Danio rerio [16] turned out to be 35%; in the data set filed under Danio rerio [17], 100%; in the data set filed under Danio rerio [20] it was 0%; in the data set filed under Danio rerio [21] it was 86.67%; in the data set filed under Danio rerio [23], 35%; in the data set listed under Danio rerio [24], 0%. The Activity in the data set listed under Danio rerio [25], in the data set listed under Danio rerio [26], in the data set listed under Danio rerio [27] and in the data set on Danio rerio [28] was 0% throughout. The result in the data set listed under Danio rerio [10] was inactive. In [13], the mortality at 2000 ug/ml amounted to 0%. In addition, the mortality at 500 ug/ml in data set [14] is 0%. Further, in data set [18], the mortality at 2500 ug/ml stood at 0%. In addition, the mortality at 1000 ug/ml in data set [19] came to 0%. Besides, the outcome in the data set with Neutrophil and in the data set listed under Danio rerio [22] was Active.

The values above are taken from ChEMBL document CHEMBL4177616, “Potent anti-melanogenic activity and favorable toxicity profile of selected 4-phenyl hydroxycoumarins in the zebrafish model and the computational molecular modeling studies” (Bioorg Med Chem, 2017).
